The nature of data set [1]: Unbound drug concentration in ICR mouse brain at 10 mg/kg, po measured after 60 mins by LC-MS/MS analysis. It is filed as ADME, organism-based. The conditions noted are these: in vivo, 1 h.
Data set [2] is described as follows: 1-Octanol/aqueous buffer partition coefficient, logD of the compound at pH 7.4 by chromatographic method. Type of data set: physicochemical.
Data set [3] can be described thus: Drug concentration in ICR mouse plasma at 10 mg/kg, po measured after 60 mins by LC-MS/MS analysis. It is filed as ADME, organism-based.
Data set [4] can be described thus: Unbound drug concentration in ICR mouse plasma at 10 mg/kg, po measured after 60 mins by LC-MS/MS analysis. It is filed as ADME, organism-based. The conditions noted are these: in vivo, 1 h.
Data set [5] is described as follows: Metabolic stability in mouse liver microsomes assessed as intrinsic clearance at 1 uM in the presence of NADPH regenerating system by LC/MS/MS analysis. It is filed as ADME, Microsome. The conditions noted are these: read-out: CLH. (In general: Liver microsomes are a subcellular fraction often used to study metabolism.)
The nature of data set [6]: Drug concentration in ICR mouse brain at 10 mg/kg, po measured after 60 mins by LC-MS/MS analysis. Type of data set: ADME, organism-based. The conditions noted are these: read-out: Ct.
A short description of data set [7]: Unbound brain-to-plasma concentration ratio in ICR mouse at 10 mg/kg, po measured after 60 mins by LC-MS/MS analysis. Conditions: read-out: K(p,uu,brain). It is filed as ADME, organism-based.
A short description of data set [8]: Metabolic stability in human liver microsomes assessed as intrinsic clearance at 1 uM in the presence of NADPH regenerating system by LC/MS/MS analysis. Type of data set: ADME, Microsome. The conditions noted are these: read-out: CLH.

For orientation: chromatographic logD means lipophilicity estimated from chromatographic retention. A low value points to a more hydrophilic compound.

On to `Cc1cc2c(c(-c3ccccc3OCC(F)(F)F)n1)CN(c1ccc(C(C)(C)O)cc1)C2=O`, for which the “Drug uptake(free)” value in data set [1] is 43 nM. The compound also displayed a chromatographic logD in data set [2] of 2.85. For the same compound, the concentration at 1 h in data set [3] worked out at 1940 ng/mL; in data set [6], 1140 ng/g. Moreover, the “Cp(f)” value in data set [4] is 387 nM. Moreover, the microsomal CLint at 1 µM in data set [5] amounted to 4 µL/min/mg. Also, in data set [7], the Kp uu at 1 h worked out at 0.11.

In the case of `CC(C)(O)c1ccc(N2Cc3c(cc(C4(C)COC4)nc3-c3ccccc3OCC(F)(F)F)C2=O)cc1`, the microsomal CLint at 1 µM in data set [8] worked out at 33 µL/min/mg; in data set [5] it was 52 µL/min/mg. In data set [1], the “Drug uptake(free)” value is recorded as 0.7 nM. This compound returned a chromatographic logD in data set [2] of 2.9. Further, the concentration at 1 h in data set [3] is 76 ng/mL; in data set [6], 17 ng/g. The “Cp(f)” value in data set [4] turned out to be 17 nM. Besides, the Kp uu at 1 h in data set [7] was found to be 0.04.

As for `Cc1cc2c(c(-c3ccccc3OCC(F)F)n1)CN(c1ccc(C(C)(C)O)cc1)C2=O`, in data set [2], the chromatographic logD is 2.69. For the same compound, in data set [5], the microsomal CLint at 1 µM is 1 µL/min/mg.

Turning to `CC(C)(O)c1ccc(N2Cc3c(ccnc3-c3ccccc3OCC(F)(F)F)C2=O)cc1`, the microsomal CLint at 1 µM in data set [8] was 40 µL/min/mg; in data set [5], 12 µL/min/mg. The chromatographic logD in data set [2] was 2.37.

`CC(C)(O)c1ccc(N2Cc3c(cc(C4CCOCC4)nc3-c3ccccc3OCC(F)F)C2=O)cc1`: the microsomal CLint at 1 µM was determined as 1 µL/min/mg in data set [8] and 5 µL/min/mg in data set [5]. The same compound had a chromatographic logD in data set [2] of 2.98.

On to `CC(C)(O)c1ccc(N2Cc3c(cc(C(C)(C)O)nc3-c3ccccc3OCC(F)F)C2=O)cc1`, for which the microsomal CLint at 1 µM in data set [8] came to 3 µL/min/mg. Further, the chromatographic logD in data set [2] worked out at 2.77.

`CC(C)(O)c1ccc(N2Cc3c(cc(C4CCCCC4)nc3-c3ccccc3OCC(F)F)C2=O)cc1`: the figures for the microsomal CLint at 1 µM in data set [8] and in data set [5] were 33 µL/min/mg and 56 µL/min/mg, respectively. The chromatographic logD in data set [2] came out at 4.63.

`CN(C)C(=O)c1cc2c(c(-c3ccccc3OCC(F)F)n1)CN(c1ccc(C(C)(C)O)cc1)C2=O` showed a chromatographic logD in data set [2] of 1.85.

As for `CC(C)(O)c1ccc(N2Cc3c(cc(C(C)(C)F)nc3-c3ccccc3OCC(F)F)C2=O)cc1`, the chromatographic logD in data set [2] stood at 3.69. Moreover, the microsomal CLint at 1 µM in data set [5] was determined as 1 µL/min/mg.

For `CC(C)(O)c1ccc(N2Cc3c(cc(C4(C)COC4)nc3-c3ccccc3OCC(F)F)C2=O)cc1`, the figures for the microsomal CLint at 1 µM in data set [8] and in data set [5] were 16 µL/min/mg and 32 µL/min/mg, respectively. In addition, the “Drug uptake(free)” value in data set [1] was determined as 3.9 nM. This compound also came in with a chromatographic logD in data set [2] of 2.76. Further, the values for the concentration at 1 h in data set [3] and in data set [6] were 284 ng/mL and 65 ng/g, respectively. In addition, the “Cp(f)” value in data set [4] stood at 124 nM. Moreover, the Kp uu at 1 h in data set [7] is 0.03.

In data set [2], `CC(C)(O)c1ccc(N2Cc3c(cc(C(F)F)nc3-c3ccccc3OCC(F)F)C2=O)cc1` yielded a chromatographic logD of 2.86.

As to `CC(C)(O)c1ccc(N2Cc3c(ccnc3-c3ccccc3OCC(F)F)C2=O)cc1`, the microsomal CLint at 1 µM is 17 µL/min/mg in data set [8] and 27 µL/min/mg in data set [5]. The compound also showed a chromatographic logD in data set [2] of 2.2.

With `CC(C)(O)c1ccc(N2Cc3c(cc(C4CCCOC4)nc3-c3ccccc3OCC(F)F)C2=O)cc1` (racemic), the microsomal CLint at 1 µM in data set [8] turned out to be 61 µL/min/mg; in data set [5] it was 46 µL/min/mg. In addition, in data set [2], the chromatographic logD was 3.19.

These data come from ChEMBL document CHEMBL5150036, “Photoredox-based late-stage functionalization in SAR study for in vivo potent glucosylceramide synthase inhibitor” (Bioorg Med Chem Lett, 2022).
